Patent US20250388623A1, “PEPTIDE INHIBITOR AND USE THEREOF” (CHENGDU BRILLIANT INSPIRATION BIOTHERAPEUTICS CO., LTD, priority 2022, published 2025)
Bridge positions count the residues as written; N and C are the ends. Peptide text beside a SMILES is read from it.

Test system: mouse lung fibrosis model induced by bleomycin (BLM)
Assay: Inflammatory and fibrotic pathology (HE, Masson's trichrome) in BLM mouse fibrosis model
Format: in vivo
Design: scale not given here
Details: for Inflammatory score Mean: 3 mg/kg intratracheal twice weekly x4 from Day 8, Day 21, HE staining, BLM model 2.25, negative control 0.36; for Fibrosis score Mean: 3 mg/kg intratracheal twice weekly x4 from Day 8, Day 21, Masson's trichrome, BLM model 3.25, negative control 1.01
Experimental: This Example was to assess the inhibitory effect of polypeptides on fibrotic pathology. 6- to 8-week-old male C57/6J mice weighing 18-20 g were used as subjects for the study. The experimental animals were randomized into groups, 6 animals in each group. On the day of modeling (Day 1), a single dose of 0.7 USP/kg of BLM solution was administered via the tracheal route to the BLM group and each peptide-treated group to induce the model. The negative control group received an equal volume of saline. Treatment dosing started on Day 8. Each peptide-treated group received the peptide drug intratracheally at a dosage of 3 mg/kg, while the positive control group received the peptide of SEQ ID NO: 50 at the same dosage, and the administration frequency was twice a week, with a total of 4 administrations. The BLM model group and the negative control group received an equal volume of solvent (saline) as a control. The procedure followed that described in Example 4.
On Day 21, the lung tissues were dissected, washed with saline to remove blood stains, and dried with gauze. Histopathological analysis was then performed on the dissected lung tissues. The lung tissues were perfused with 0.5 mL of paraformaldehyde via the trachea and placed in 4 mL of paraformaldehyde. A small amount of gauze was added to ensure the lung tissues were completely immersed in the fixative solution. The tissues were fixed for more than 24 hours. One lobe of the left lung and four lobes of the right lung were trimmed to the maximum coronal plane, placed in an embedding cassette, dehydrated overnight, and then paraffin-embedded to make 3 μm sections. An autostainer (Leica, model ST5010) was used for Hematoxylin (Herst, lot no. 201905)-Eosin (Chron, lot no.2018070301) (HE) staining, and MASSON'S trichrome (Celestineblue, Chron, lot no. MKCH8129; Aniline blue, Yuanye, lot no. H70J11S115483; Ponceau, Sigma, lot no. SHBM2047) staining. After mounting the sections, they were scanned using a digital panoramic scanner (Zhiyue, model WS-10). For each lung lobe, ≤10 visual fields were captured under a 20× magnification. The severity of inflammation and the severity of fibrosis were assessed using HE staining and Masson's trichrome staining, respectively, to evaluate the inhibitory effects of the polypeptides on inflammatory infiltration and fibrotic deposition at pathological fibrotic sites.

Compound | Inflammatory score Mean | Fibrosis score Mean
Ac-TQDAEDNTASH-NH2 [SEQ ID NO: 33, Ac-Thr-Gln-Asp-Ala-Glu-Asp-Asn-Thr-Ala-Ser-His-NH2] | 1.27 | 2.64
Ac-TQDAEDPTAS-NH2 [SEQ ID NO: 25, Ac-Thr-Gln-Asp-Ala-Glu-Asp-Pro-Thr-Ala-Ser-NH2] | 1.39 | 2.47
Ac-TQDAEDN-NH2 [SEQ ID NO: 06, Ac-Thr-Gln-Asp-Ala-Glu-Asp-Asn-NH2] | 1.65 | 2.65
Ac-TQDPEDNTAS-NH2 [SEQ ID NO: 26, Ac-Thr-Gln-Asp-Pro-Glu-Asp-Asn-Thr-Ala-Ser-NH2] | 0.95 | 2.05
Ac-TQDAEDPTA-NH2 [SEQ ID NO: 22, Ac-Thr-Gln-Asp-Ala-Glu-Asp-Pro-Thr-Ala-NH2] | 1.43 | 2.33
CC(=O)N[C@H](C(=O)N[C@H]1CSSC[C@@H](C(=O)O)NC(=O)[C@H](CC(N)=O)NC(=O)[C@H](CC(=O)O)NC(=O)[C@H](CCC(=O)O)NC(=O)[C@H](C)NC(=O)[C@H](CC(=O)O)NC1=O)[C@@H](C)O [SEQ ID NO: 43, Ac-Thr-cyclo[Cys-Asp-Ala-Glu-Asp-Asn-Cys]] (Ac-TCDAEDNC-OH; disulfide 2-8) | 1.46 | 2.59
